These are literature values, as cited in patent US5614213A, “Use of estriol for treatment of climacteric osteoporosis” (priority 1992, dated 1997).

Series [1] deals with osteoporosis. Conditions: hormone replacement; cited from earlier work.
For series [2], the system named is arteriosclerotic vascular changes. Conditions: hormone replacement; cited from earlier work.
Series [3] has as its system ovulation in women. To be noted: lower dosages than 5 mg/day; cited from earlier work.

Turning to `C[C@]12CC[C@@H]3c4ccc(O)cc4CC[C@H]3[C@@H]1CCC2=O` [estrone], the “prevention of osteoporosis in the climacteric” value in series [1] was “can prevent advancing osteoporosis in the climacteric”. Moreover, the “effect on arteriosclerotic vascular changes” value in series [2] is “can slow the advance of arteriosclerotic vascular changes”.
Take `C[C@]12CC[C@@H]3c4ccc(O)cc4CC[C@H]3[C@@H]1CC[C@@H]2O` [estradiol]: in series [3], the “suppression of ovulation in women” value was “clearly possible”. Further, the “prevention of osteoporosis in the climacteric” value in series [1] is “can prevent advancing osteoporosis in the climacteric”. In addition, the “effect on arteriosclerotic vascular changes” value in series [2] is recorded as “can slow the advance of arteriosclerotic vascular changes”.
